# Laboratory results taken from paper PMC4215984, “Structure of a Diguanylate Cyclase from Thermotoga maritima: Insights into Activation, Feedback Inhibition and Thermostability” (PLoS ONE, 2014).
# What was measured:
# [1] = target: T1, tDGC (GGDEF domain of TM1788) (Thermotoga maritima, UniProt Q9X2A8, R233A); experiment: gel filtration; assay type: binding; conditions: I-site; co-purified ligand
# T1 construct: gene TM_1788; GGDEF domain, residues 82-248 of 248, N-terminal His6 tag, pET28b (salt-bridge mutants in pET22b), E. coli BL21(DE3); dimer with c-di-GMP, monomer without nucleotide
# [2] = target: T2, RocR (Pseudomonas aeruginosa, UniProt Q9HX69); experiment: hydrolysis of tDGC-bound c-di-GMP to pGpG, gel filtration and mass spectrometry; assay type: biochemical; conditions: 25 mM Tris-HCl, 300 mM NaCl, 5% glycerol, 10 mM MgCl2, 2 h, room temperature
# T2 construct: recombinant RocR phosphodiesterase, expressed and purified as in cited earlier work
# [3] = target: T3, tDGC (GGDEF domain of TM1788) (Thermotoga maritima, UniProt Q9X2A8, D177A); experiment: gel filtration; assay type: binding; conditions: I-site; co-purified ligand
# T3 construct: gene TM_1788; GGDEF domain, residues 82-248 of 248, N-terminal His6 tag, pET28b (salt-bridge mutants in pET22b), E. coli BL21(DE3); dimer with c-di-GMP, monomer without nucleotide
# [4] = target: T4, tDGC (GGDEF domain of TM1788) (Thermotoga maritima, UniProt Q9X2A8); experiment: thermal unfolding by circular dichroism at […] nm; assay type: binding; conditions: 20 mM Tris-HCl pH 8.5, 250 mM NaCl, 5% glycerol, 10 mM MgCl2, 0.8 mg/ml; co-purified ligand at I-site
# T4 construct: gene TM_1788; GGDEF domain, residues 82-248 of 248, N-terminal His6 tag, pET28b (salt-bridge mutants in pET22b), E. coli BL21(DE3); dimer with c-di-GMP, monomer without nucleotide
# [5] = target: T4, tDGC (GGDEF domain of TM1788); experiment: X-ray crystallography; assay type: binding; conditions: feedback-inhibitory I-site (158-RxxD-161, secondary R115); co-purified ligand; inactive dimer crystals pH 6.5 (2.27 Å), active-like dimer crystals pH 4.0 (1.9 Å)
# [6] = target: T5, tDGC (GGDEF domain of TM1788) (Thermotoga maritima, UniProt Q9X2A8, E196A); experiment: gel filtration; assay type: binding; conditions: I-site; co-purified ligand
# T5 construct: gene TM_1788; GGDEF domain, residues 82-248 of 248, N-terminal His6 tag, pET28b (salt-bridge mutants in pET22b), E. coli BL21(DE3); dimer with c-di-GMP, monomer without nucleotide
# T5 sequence (Q9X2A8 entry or part of it E196A): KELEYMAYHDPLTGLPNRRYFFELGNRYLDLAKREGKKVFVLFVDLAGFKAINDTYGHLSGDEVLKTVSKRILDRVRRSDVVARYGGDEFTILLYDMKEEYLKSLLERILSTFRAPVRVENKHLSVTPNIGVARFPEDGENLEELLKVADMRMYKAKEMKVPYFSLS
# T4 sequence (Q9X2A8 entry or part of it): as the sequence (Q9X2A8 entry or part of it E196A) above, with A115E counted along it
# T3 sequence (Q9X2A8 entry or part of it D177A): as the sequence (Q9X2A8 entry or part of it E196A) above, with D96A, A115E counted along it
# T1 sequence (Q9X2A8 entry or part of it R233A): as the sequence (Q9X2A8 entry or part of it E196A) above, with A115E, R152A counted along it
# T2 sequence (Q9HX69 whole entry): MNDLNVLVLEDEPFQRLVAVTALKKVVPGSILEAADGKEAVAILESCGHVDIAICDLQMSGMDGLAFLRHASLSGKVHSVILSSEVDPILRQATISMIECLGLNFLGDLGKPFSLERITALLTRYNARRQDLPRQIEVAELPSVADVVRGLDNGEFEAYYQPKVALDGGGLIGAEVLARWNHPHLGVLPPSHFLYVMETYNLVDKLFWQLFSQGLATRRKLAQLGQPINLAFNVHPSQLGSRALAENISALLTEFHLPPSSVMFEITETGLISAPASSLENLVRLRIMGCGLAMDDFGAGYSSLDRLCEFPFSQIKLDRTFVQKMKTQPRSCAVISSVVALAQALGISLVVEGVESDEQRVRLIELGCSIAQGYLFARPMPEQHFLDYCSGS
structure (smiles),measurement,setting,value
Nc1nc2c(ncn2[C@@H]2O[C@@H]3COP(=O)(O)O[C@H]4[C@@H](O)[C@H](n5cnc6c(=O)[nH]c(N)nc65)O[C@@H]4COP(=O)(O)O[C@H]3[C@H]2O)c(=O)[nH]1 [c-di-GMP],gel filtration,[1],"The three mutants eluted as dimers in gel filtration, indicating that c-di-GMP is bound"
same,"hydrolysis of tDGC-bound c-di-GMP to pGpG, gel filtration and mass spectrometry",[2],Following incubation of the wild type tDGC bound to c-di-GMP with RocR
same,gel filtration,[3],"The three mutants eluted as dimers in gel filtration, indicating that c-di-GMP is bound"
same,Tm (c-di-GMP-bound dimer; nucleotide-free monomer 85.5),[4],85.0 °C
same,structure,[5],The wild type tDGC protein co-purifies with c-di-GMP and co-crystallizes without any extraneous addition of ligand
same,gel filtration,[6],"The three mutants eluted as dimers in gel filtration, indicating that c-di-GMP is bound"
